Source: patent EP0319030A1, “Aminopropanol derivatives of 1,4:3,6-dianhydro-hexitol nitrates, processes for their preparation and their use as medicaments” (Heinrich Mack Nachf., priority 1987, dated 1989)
Marks after values point to notes of the source that are not given here.

Experiments:
Format in all cases: in vivo
Mice = experiment: Peroral tolerance in mice; conditions: 500 mg/kg perorally, mice
From the text: Set forth below is data obtained on the compounds of Examples 17, 19 and 20 that illustrates the pharmacological action of the compounds of the present invention.

anesthetized rat = experiment: Lypressin-induced T-wave increase in the ECG (lypressin coronary spasm), method of M. Leitold et al.
From the text: (§1) In particular, they have a pronounced cardiovascular action. On isolated strips of veins from dogs, they act against the K⁺-induced contraction in a lower concentration than on aorta strips. On isolated hearts from guinea pigs, they increase coronary flow as a function of the dose. On anesthetized rats, they prevent lypressin coronary spasm as a function of the dose and significiantly increase the survival rate of rats following acute cardiac infarction. On normotensive conscious dogs, they lower the systolic blood pressure for a period of 6-8 hours after oral administration. On artifically respirated anesthetized, thoraxotomized dogs, they reduce the mean arterial pressure, the left ventricular systolic pressure, the left ventricular end diastolic pressure and the pressure in the Arteria pulmonalis and reduce the peripheral vascular resistance. In contrast to the known organic nitrate esters, they also lead to a long-lasting reduction in the systolic blood pressure of spontaneously hypertensive rats. Such an action profile is not known for any of the substances of similar structure which have already been described.

conscious beagle dogs = experiment: Systolic blood pressure and heart rate following peroral administration; conditions: 5.0 mg/kg peroral, mean ± SEM
From the text: as §1

rats = experiment: Survival rate after acute coronary ligature, method of I. Lepran et al.; conditions: 100.0 mg/kg orally 5 minutes before ligature
From the text: as §1

SMILES: COc1ccccc1N1CCN(CC(O)CO[C@@H]2CO[C@H]3[C@@H]2OC[C@H]3O[N+](=O)[O-])CC1 (some centres unmarked) [Example 19, 5-O-<3-[4-(2-Methoxyphenyl)-piperzinyl]-2-hydroxypropyl>-isomannide-2-nitrate]
- tolerance (clinical symptoms, fatal consequences) (Mice): without clinical symptoms and without fatal consequences
- ED50 (anesthetized rat; Rattus norvegicus, po, 0.5 h, perorally 30 minutes before the lypressin injection, dose column in mg/kg): 46.7 mg/kg
- Duration of action at the ED50 dose (anesthetized rat; perorally at various times before the lypressin injection): 4 h
- HR (heart rate), Action of substance after 1 hours (conscious beagle dogs): 101 ± 5 Bts/M
- HR (heart rate), Action of substance after 2 hours (conscious beagle dogs): 90 ± 5 Bts/M
- HR (heart rate), Action of substance after 4 hours (conscious beagle dogs): 85 ± 5 Bts/M
- HR (heart rate), Action of substance after 6 hours (conscious beagle dogs): 86 ± 5 Bts/M
- SBP (systolic blood pressure), Action of substance after 1 hours (conscious beagle dogs): 105 ± 8 mmHg
- SBP (systolic blood pressure), Action of substance after 2 hours (conscious beagle dogs): 105 ± 5 mmHg
- SBP (systolic blood pressure), Action of substance after 4 hours (conscious beagle dogs): 118 ± 6 mmHg
- SBP (systolic blood pressure), Action of substance after 6 hours (conscious beagle dogs): 126 ± 6 mmHg
- Number of rats surviving after an acute coronary ligature, 24 hours (rats; control 21/80): 15/20*
- Number of rats surviving after an acute coronary ligature, 7 days (rats; control 21/80): 15/20*
- Number of rats surviving after an acute coronary ligature, 60 minutes (rats; control 23/80): 15/20*
